The text below walks through data of ChEMBL document CHEMBL6071133, “Discovery of novel penetrating peptides able to target human leukemia and lymphoma for enhanced PROTAC delivery” (Eur J Med Chem, 2024).

Active and inactive are the calls of the source. No cut-off for these calls is given here.

The nature of data set [1]: Drug uptake in human K562 cells assessed as membrane penetration by measuring increase in fluorescence intensity at 5 umol/L incubated for 2 hrs by flow cytometry relative to C9C. It is filed as ADME, cell-based. The note with it: k562, 2 h, 5 µM, dose 5 µmol/L.
A short description of data set [2]: Interaction with IMA-PROTAC assessed as induction of formation of micelle cluster with uniform and distinct spherical morphology by transmission electron microscopy. It counts as physicochemical.
Data set [3] in a line: Increase in membrane permeation of IMA-PROTAC in human K562 cells assessed as increase in intracellular content of IMA-PROTAC incubated for 3 hrs by HPLC-MRM-MS analysis relative to control. It is filed as functional.
A short description of data set [4]: Drug uptake in human K562 cells assessed as increase in fluorescence intensity at 1 to 10 uM incubated for 2 hrs by flow cytometry. It counts as ADME, cell-based. The following applies: k562, 2 h, dose 1-10 µM.
For data set [5], the system named is K562. The data set can be described thus: Potentiation of IMA-PROTAC-induced cytotoxicity against human K562 cells assessed as inhibition of cell growth at compound: IMA-PROTAC concentration ratio of 5:1 incubated for 48 hrs in presence of 10 to 30 umo/L IMA-PROTAC by MTT assay relative to IMA-PROTAC. It is filed as functional.
The subject of data set [6] is K562. Nature of the data set: Increase in membrane permeability of IMA-PROTAC in human K562 cells assessed as potentiation of IMA-PROTAC-induced Bcr-Abl degradation at PROTAC to compound concentration ratio of 1:3 incubated for 48 hrs in presence of 3 umol/L IMA-PROTAC by western blot analysis. It counts as functional, cell-based.
Data set [7] is described as follows: Drug uptake in human K562 cells assessed as fluorescence intensity at 5 umol/L pretreated with endocytosis inhibitor, chloroquine for 0.5 hrs followed by incubation with compound for 2 hrs by FACS analysis. It counts as ADME, cell-based. The note with it: k562, 2 h, 5 µM, dose 5 µmol/L.
A short description of data set [8]: Cytotoxicity against human THP-1 cells assessed as cell viability at higher concentrations incubated for 48 hrs by MTT assay. The following applies: read-out: Activity. It is filed as toxicity, cell-based.
In data set [9] the test system is K562. The data set can be described thus: Induction of apoptosis in human K562 cells assessed as early apoptotic cells at PROTAC to compound concentration ratio of 1:5 incubated for 48 hrs in presence of 3 umol/L IMA-PROTAC by AnnexinV-FITC/PI staining based flow cytometry (reference value: 0.03%). It counts as functional.

For the compound `CC(C)C[C@H](NC(=O)[C@H](Cc1csc2ccccc12)NC(=O)[C@@H](Cc1ccccc1)NC(=O)[C@H](Cc1ccccc1)NC(=O)CNC(=O)[C@@H](N)CS)C(=O)N[C@@H](CCCNC(=N)N)C(=O)N[C@@H](CO)C(=O)N[C@@H](CS)C(=O)O`, the figures for the “fold change (FC)” value in data set [1] and in data set [3] were 4.03 and 1.72, respectively. Also, the Activity entry in data set [2] is reported as “Not Active”; in the data set on K562 [9], 22.82%. For the same compound, the Drug uptake result is reported as “Dose-Dependent Effect” in data set [4] and “Not Active” in data set [7]. For the same compound, the “inhibition (INH)” value with K562 [5] is on record as 20%. In the data set on K562 [6], the result was Active. In addition, in data set [8], the viability at 48 h is over 75%.
